# Test results published in patent US20260374754A1, “N-((ISOQUINOLIN-6-YL)METHYL)-1H-PYRAZOLE-4-CARBOXAMIDE DERIVATIVES AS PLASMA KALLIKREIN INHIBITORS FOR THE TREATMENT OF HEREDITARY ANGIODEMA” (Takeda Pharmaceutical Company Limited, priority 2022, published 2026).
# pEC50: −log10 of the molar value.
# Target: human activated kallikrein enzyme (Homo sapiens, UniProt P03952)
# Experiment: Inhibition of human activated plasma kallikrein, fluorogenic PFR-AMC substrate, 500 pM enzyme format
# Format: biochemical
# Conditions: 500 pM activated kallikrein; 300 μM PFR-AMC; 30 min preincubation; 10 min room temperature; pH 7.5; read-out: Primary Dose Response Assay: Average EC50
# How it was run: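 500 pM activated kallikrein preincubated 30 min at room temperature with inhibitors in pH 7.5 Tris/EDTA/NaCl buffer with PEG-400 and Triton X-100. Reaction started with 300 μM PFR-AMC, run 10 min at room temperature; AMC fluorescence read at ex 380/em 460 nm.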
# Chain of human activated kallikrein enzyme (P03952 391-638 limits assumed): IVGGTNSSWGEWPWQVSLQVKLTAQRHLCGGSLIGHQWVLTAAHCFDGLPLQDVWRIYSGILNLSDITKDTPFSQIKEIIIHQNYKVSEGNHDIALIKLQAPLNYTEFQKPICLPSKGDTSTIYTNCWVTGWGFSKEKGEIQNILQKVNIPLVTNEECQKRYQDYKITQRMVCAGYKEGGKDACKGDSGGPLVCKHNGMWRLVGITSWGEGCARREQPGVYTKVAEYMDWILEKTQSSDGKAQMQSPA
# Chain of human activated kallikrein enzyme (P03952 20-390 partner limits assumed): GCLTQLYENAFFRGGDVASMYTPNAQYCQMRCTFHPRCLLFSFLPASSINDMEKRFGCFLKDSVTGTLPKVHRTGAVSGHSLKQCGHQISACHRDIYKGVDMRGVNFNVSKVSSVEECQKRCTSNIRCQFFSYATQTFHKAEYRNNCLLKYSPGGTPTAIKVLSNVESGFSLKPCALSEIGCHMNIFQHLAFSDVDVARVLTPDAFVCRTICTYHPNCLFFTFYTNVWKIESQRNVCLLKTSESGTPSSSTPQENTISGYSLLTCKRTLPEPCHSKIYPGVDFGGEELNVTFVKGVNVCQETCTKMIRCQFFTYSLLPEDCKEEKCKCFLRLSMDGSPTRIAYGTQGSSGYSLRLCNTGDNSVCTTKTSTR
row,Compound,pEC50
1,"Cc1cc2c(N)nccc2c(C)c1CNC(=O)c1cnn(Cc2ccc3c(Br)cccc3c2)c1 [Example 113, N-((1-amino-5,7-dimethylisoquinolin-6-yl)methyl)-1-((5-bromonaphthalen-2-yl)methyl)-1H-pyrazole-4-carboxamide]",8.00 to 9.00
2,"Cc1cc2c(N)nccc2c(C)c1CNc1cc(OCc2cn3cc(C4CC4)cc(-n4c(C)nnc4C)c3n2)ncn1 [Example 257, 6-(((6-((6-cyclopropyl-8-(3,5-dimethyl-4H-1,2,4-triazol-4-yl)imidazo[1,2-a]pyridin-2-yl)methoxy)pyrimidin-4-yl)amino)methyl)-5,7-dimethylisoquinolin-1-amine]",8.00 to 9.00
3,"Cc1cc2c(N)nccc2c(C)c1CNc1cc(NCc2ccc(Cc3ccccn3)cc2)ncn1 [Example 363, N^4-((1-amino-5,7-dimethylisoquinolin-6-yl)methyl)-N^6-(4-(pyridin-2-ylmethyl)benzyl)pyrimidine-4,6-diamine]",> 9.00
4,"Cc1cc2c(N)nccc2c(C)c1CNC(=O)c1cnn(Cc2ccc3c(c2)nnn3C)c1 [Example 58, N-((1-amino-5,7-dimethylisoquinolin-6-yl)methyl)-1-((1-methyl-1H-benzo[d][1,2,3]triazol-5-yl)methyl)-1H-pyrazole-4-carboxamide]",8.00 to 9.00
5,"Cc1ccc2nc(Cn3cc(C(=O)N(C)Cc4c(C)cc5c(N)nccc5c4C)cn3)cn2c1 [Example 128, N-((1-amino-5,7-dimethylisoquinolin-6-yl)methyl)-N-methyl-1-((6-methylimidazo[1,2-a]pyridin-2-yl)methyl)-1H-pyrazole-4-carboxamide]",7.00 to 8.00
6,"C/C=C\c1ccc2nc(Cn3ccc(C(=O)NCc4c(C)cc5c(N)nccc5c4C)n3)cn2c1 [Example 177, (Z)-N-((1-amino-5,7-dimethylisoquinolin-6-yl)methyl)-1-((6-(prop-1-en-1-yl)imidazo[1,2-a]pyridin-2-yl)methyl)-1H-pyrazole-3-carboxamide]",> 9.00
7,"Cc1cc2c(N)nccc2c(C)c1CNC(=O)c1cnn(Cc2cnc3cc(Cl)ccc3c2)c1 [Example 61, N-((1-amino-5,7-dimethylisoquinolin-6-yl)methyl)-1-((7-chloroquinolin-3-yl)methyl)-1H-pyrazole-4-carboxamide]",> 9.00
8,"Cc1cc2c(N)nccc2c(C)c1CNC(=O)c1cnn(Cc2cn3c(Cl)c(C4CC4)ccc3n2)c1 [Example 148, N-((1-amino-5,7-dimethylisoquinolin-6-yl)methyl)-1-((5-chloro-6-cyclopropylimidazo[1,2-a]pyridin-2-yl)methyl)-1H-pyrazole-4-carboxamide]",> 9.00
9,"Cc1cc2c(N)nccc2c(C)c1CNc1cc(NCc2ccc(OC(F)(F)C(=O)N(C)C)cc2)ncn1 [Example 352, 2-(4-(((6-(((1-amino-5,7-dimethylisoquinolin-6-yl)methyl)amino)pyrimidin-4-yl)amino)methyl)phenoxy)-2,2-difluoro-N,N-dimethylacetamide]",7.00 to 8.00
10,"Cc1cc2c(N)nccc2c(C)c1CNC(=O)c1cnn(Cc2cnc3ccc(Br)cc3c2)c1 [Example 70, N-((1-amino-5,7-dimethylisoquinolin-6-yl)methyl)-1-((6-bromoquinolin-3-yl)methyl)-1H-pyrazole-4-carboxamide]",> 9.00
11,"Cc1cc2c(N)nccc2c(C)c1CNC(=O)Nc1ncncc1OCc1cn2cc(C3CC3)ccc2n1 [Example 507, 1-((1-amino-5,7-dimethylisoquinolin-6-yl)methyl)-3-(5-((6-cyclopropylimidazo[1,2-a]pyridin-2-yl)methoxy)pyrimidin-4-yl)urea]",8.00 to 9.00
12,"Cc1cc2c(N)nccc2c(C)c1CNc1nsc(NCc2cn3cc(C4CC4)ccc3n2)n1 [Example 511, N^3-((1-amino-5,7-dimethylisoquinolin-6-yl)methyl)-N^5-((6-cyclopropylimidazo[1,2-a]pyridin-2-yl)methyl)-1,2,4-thiadiazole-3,5-diamine]",8.00 to 9.00
